Key:
[1] = molecular target: LOK (Homo sapiens, UniProt O94804); assay: Kinase selectivity panel; assay type: biochemical; conditions: [ATP] = 1 mM
[2] = molecular target: TRKA (Homo sapiens, UniProt P04629); assay: Kinase selectivity panel; assay type: biochemical; conditions: [ATP] = 1 mM
[3] = test system: INA-6 cells; assay: STAT3(Y705) and PIM kinase substrate phosphorylation in INA-6 cells in culture; assay type: cell-based; conditions: INA-6 cells treated for 24 hours in culture
Description: Fig S1. Effects of INCB053914 on STAT3(Y705) and PIM kinase substrate phosphorylation in INA-6 cells treated for 24 hours in culture.

[4] = molecular target: CDK2 (Homo sapiens, UniProt P24941); assay: Kinase selectivity panel; assay type: biochemical; conditions: [ATP] = 1 mM
[5] = molecular target: CHEK2 (Homo sapiens, UniProt O96017); assay: Kinase selectivity panel; assay type: biochemical; conditions: [ATP] = 1 mM
[6] = molecular target: MAP3K8 (Homo sapiens, UniProt P41279); assay: Kinase selectivity panel; assay type: biochemical; conditions: [ATP] = 1 mM
[7] = molecular target: SGK1 (Homo sapiens, UniProt O00141); assay: Kinase selectivity panel; assay type: biochemical; conditions: [ATP] = 1 mM
[8] = molecular target: HIPK3 (Homo sapiens, UniProt Q9H422); assay: Kinase selectivity panel; assay type: biochemical; conditions: [ATP] = 1 mM
[9] = molecular target: SGK3 (Homo sapiens, UniProt Q96BR1); assay: Kinase selectivity panel; assay type: biochemical; conditions: [ATP] = 1 mM
[10] = molecular target: AKT1 (Homo sapiens, UniProt P31749); assay: Kinase selectivity panel; assay type: biochemical; conditions: [ATP] = 1 mM
[11] = test system: PIM2 expression in PBMCs; assay: PIM2 expression in PBMCs from whole blood of patients with AML treated ex vivo; assay type: cell-based; conditions: Homo sapiens, PBMC, read-out: EC50 for increased PIM2 expression, whole blood treated overnight ex vivo
Description: The effects of INCB053914 on pBAD, pp70S6K, and p4E-BP1 levels and on the expression of PIM isozymes also were assessed ex vivo in primary bone marrow blasts (Stem Cell and Xenograft Core, University of Pennsylvania, Philadelphia, Pennsylvania) or in peripheral blood mononuclear cells (PBMCs) derived from whole blood samples obtained with informed written consent from adult patients with AML enrolled in an ongoing phase 1/2 dose-escalation trial, which was conducted in accordance with the study protocol approved by the respective institutional review boards or independent ethics committees. Only samples initially containing >90% viable cells were used (assessed by Trypan Blue staining). Immediately after thawing, the blasts were cultured in RPMI + 10% FBS with INCB053914 for 2 hours at 37°C, before lysis. For determinations of PIM2 expression in PBMCs, whole blood samples were treated overnight with increasing concentrations of INCB053914; total PBMCs were isolated by Ficoll-Paque density gradient centrifugation before lysis. The levels of PIM isozymes and phosphoproteins in cell lysates were detected by Western blotting using the same primary antibodies as above.

[12] = molecular target: IKKB (Homo sapiens, UniProt O14920); assay: Kinase selectivity panel; assay type: biochemical; conditions: [ATP] = 1 mM
[13] = molecular target: CHEK1 (Homo sapiens, UniProt O14757); assay: Kinase selectivity panel; assay type: biochemical; conditions: [ATP] = 1 mM
[14] = molecular target: DDR2 (Homo sapiens, UniProt Q16832); assay: Kinase selectivity panel; assay type: biochemical; conditions: [ATP] = 1 mM
[15] = molecular target: RPS6KB1 (Homo sapiens, UniProt P23443); assay: Kinase selectivity panel; assay type: biochemical; conditions: [ATP] = 1 mM
[16] = test system: panel of 192 kinases; assay: Broader panel of 192 kinases (PerkinElmer); assay type: biochemical; conditions: INCB053914 100 nM; results not shown
[17] = molecular target: JNK1 (Homo sapiens, UniProt P45983); assay: Kinase selectivity panel; assay type: biochemical; conditions: [ATP] = 1 mM
[18] = molecular target: STK4 (Homo sapiens, UniProt Q13043); assay: Kinase selectivity panel; assay type: biochemical; conditions: [ATP] = 1 mM
[19] = molecular target: EPHB4 (Homo sapiens, UniProt P54760); assay: Kinase selectivity panel; assay type: biochemical; conditions: [ATP] = 1 mM
[20] = molecular target: MSSK1 (Homo sapiens, UniProt Q9UPE1); assay: Kinase selectivity panel; assay type: biochemical; conditions: [ATP] = 1 mM
[21] = test system: MOLM-16 (AML) xenografts; assay: Tumor growth in MOLM-16 (AML) xenograft; assay type: in vivo, mouse
Description: Female immune compromised (severe combined immunodeficiency [SCID]) mice (5–9 weeks of age; Charles River Laboratories, Wilmington, Massachusetts) were inoculated with MOLM-16, KG-1, or KMS-12-BM cells. A cell suspension in Dulbecco’s phosphate-buffered saline (DPBS) (1 × 10^8 cells/ml) was mixed 1:1 (v/v) with matrigel, and 200 μl was injected subcutaneously into the flank of each mouse. Studies of INCB053914 combination regimens used xenograft models derived from INA-6 (MM) cells or Pfeiffer (DLBCL) cells. INA-6 tumor fragments were injected subcutaneously as brei (100 μl in Hank’s balanced salt solution [HBSS, 1:10 v/v]) into the flank of each mouse; Pfeiffer tumor fragments (1 cm × 1 cm) were directly implanted. The treatment of tumor-bearing mice started 7 to 24 days after tumor inoculation for efficacy studies and approximately 14 to 27 days after tumor inoculation for pharmacodynamic studies.
For efficacy studies, mice were sorted to obtain approximately equivalent mean tumor volumes in each group. The starting mean tumor volume in efficacy studies for all groups ranged from 158 mm^3 to 249 mm^3, and groups consisted of eight or nine animals. The mean tumor volume in pharmacodynamic studies for all groups ranged from 114 mm^3 to 833 mm^3, and groups consisted of three to eight animals. […]
Tumor volume was calculated in two dimensions using the equation: volume = [length × (width^2)] / 2, where the larger number was length and the smaller number was width. Effects on tumor growth were reported as percent tumor growth inhibition calculated as (1 − [treatment volume / control volume]) × 100, where control volume was the vehicle/untreated tumor volume on a given day and treatment volume was any treatment group tumor volume on that same day. Statistical significance of differences between treatment and vehicle controls was assessed using analysis of variance single factor test.

[22] = molecular target: CLK3 (Homo sapiens, UniProt P49761); assay: Kinase selectivity panel; assay type: biochemical; conditions: [ATP] = 1 mM
[23] = molecular target: FLT3 (Homo sapiens, UniProt P36888); assay: Kinase selectivity panel; assay type: biochemical; conditions: [ATP] = 1 mM

HIPK3, sequence (Q9H422 whole entry): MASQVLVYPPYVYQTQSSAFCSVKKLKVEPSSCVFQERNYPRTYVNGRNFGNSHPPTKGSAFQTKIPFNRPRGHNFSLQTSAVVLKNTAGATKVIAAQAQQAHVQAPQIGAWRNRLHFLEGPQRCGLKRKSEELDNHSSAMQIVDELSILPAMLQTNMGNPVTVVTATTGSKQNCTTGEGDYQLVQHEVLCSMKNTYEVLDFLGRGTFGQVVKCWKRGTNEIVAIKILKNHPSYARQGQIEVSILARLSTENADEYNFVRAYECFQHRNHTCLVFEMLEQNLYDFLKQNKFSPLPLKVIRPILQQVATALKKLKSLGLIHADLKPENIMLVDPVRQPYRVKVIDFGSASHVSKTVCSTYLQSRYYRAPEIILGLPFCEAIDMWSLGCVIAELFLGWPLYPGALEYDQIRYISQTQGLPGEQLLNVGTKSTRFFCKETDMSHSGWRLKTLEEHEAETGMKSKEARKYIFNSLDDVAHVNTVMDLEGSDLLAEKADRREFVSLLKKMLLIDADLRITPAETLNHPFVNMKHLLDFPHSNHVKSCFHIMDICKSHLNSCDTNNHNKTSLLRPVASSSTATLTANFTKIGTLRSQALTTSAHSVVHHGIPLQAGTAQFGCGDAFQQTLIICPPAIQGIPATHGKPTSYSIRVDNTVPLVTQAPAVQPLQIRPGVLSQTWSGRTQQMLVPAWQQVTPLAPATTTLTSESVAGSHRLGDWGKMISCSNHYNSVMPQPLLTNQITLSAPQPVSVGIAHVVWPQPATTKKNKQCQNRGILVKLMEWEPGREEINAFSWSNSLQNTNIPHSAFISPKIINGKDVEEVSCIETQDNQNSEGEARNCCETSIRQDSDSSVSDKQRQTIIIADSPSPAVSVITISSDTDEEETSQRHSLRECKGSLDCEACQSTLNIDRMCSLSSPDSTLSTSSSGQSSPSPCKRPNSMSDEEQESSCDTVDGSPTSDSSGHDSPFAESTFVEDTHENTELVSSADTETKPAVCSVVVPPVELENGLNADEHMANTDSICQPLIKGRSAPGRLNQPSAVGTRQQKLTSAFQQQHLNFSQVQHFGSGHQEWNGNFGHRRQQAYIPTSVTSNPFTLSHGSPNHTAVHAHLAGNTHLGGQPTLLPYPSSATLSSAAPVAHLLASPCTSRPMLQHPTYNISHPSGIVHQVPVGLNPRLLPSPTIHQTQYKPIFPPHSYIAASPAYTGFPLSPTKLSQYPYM
DDR2, sequence (Q16832 22-855): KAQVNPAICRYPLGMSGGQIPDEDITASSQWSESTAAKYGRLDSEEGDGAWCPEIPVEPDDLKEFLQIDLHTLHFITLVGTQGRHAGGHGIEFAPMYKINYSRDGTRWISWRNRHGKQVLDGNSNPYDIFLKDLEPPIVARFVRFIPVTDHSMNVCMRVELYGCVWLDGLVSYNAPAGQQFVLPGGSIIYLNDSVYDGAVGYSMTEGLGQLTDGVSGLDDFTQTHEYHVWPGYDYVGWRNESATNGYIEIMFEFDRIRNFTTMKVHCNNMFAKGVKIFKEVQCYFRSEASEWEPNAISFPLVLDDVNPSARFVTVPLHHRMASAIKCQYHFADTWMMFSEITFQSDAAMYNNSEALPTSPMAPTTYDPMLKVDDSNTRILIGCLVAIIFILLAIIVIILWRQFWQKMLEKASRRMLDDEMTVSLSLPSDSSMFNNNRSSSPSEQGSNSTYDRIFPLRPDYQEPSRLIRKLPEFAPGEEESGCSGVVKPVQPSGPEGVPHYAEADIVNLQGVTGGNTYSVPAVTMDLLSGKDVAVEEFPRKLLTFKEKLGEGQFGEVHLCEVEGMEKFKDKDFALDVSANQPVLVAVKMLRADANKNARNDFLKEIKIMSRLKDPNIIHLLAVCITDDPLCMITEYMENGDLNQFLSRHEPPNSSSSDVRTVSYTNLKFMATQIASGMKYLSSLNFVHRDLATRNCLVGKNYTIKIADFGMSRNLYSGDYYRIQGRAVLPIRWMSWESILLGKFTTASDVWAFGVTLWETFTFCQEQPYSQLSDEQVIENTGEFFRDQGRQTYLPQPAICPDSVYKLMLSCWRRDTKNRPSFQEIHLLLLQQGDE
SGK1, sequence (O00141 whole entry, species assumed): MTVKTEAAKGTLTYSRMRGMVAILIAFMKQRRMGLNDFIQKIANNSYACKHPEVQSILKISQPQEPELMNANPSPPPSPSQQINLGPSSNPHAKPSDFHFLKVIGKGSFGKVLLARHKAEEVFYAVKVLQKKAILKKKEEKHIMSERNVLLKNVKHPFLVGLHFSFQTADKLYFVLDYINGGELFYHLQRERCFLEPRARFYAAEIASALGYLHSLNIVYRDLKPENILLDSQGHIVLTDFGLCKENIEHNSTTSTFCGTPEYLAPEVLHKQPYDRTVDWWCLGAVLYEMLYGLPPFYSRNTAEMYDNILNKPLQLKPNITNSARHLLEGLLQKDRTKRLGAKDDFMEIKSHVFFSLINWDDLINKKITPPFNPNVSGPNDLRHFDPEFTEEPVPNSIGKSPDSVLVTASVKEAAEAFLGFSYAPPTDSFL
CLK3, sequence (P49761 whole entry): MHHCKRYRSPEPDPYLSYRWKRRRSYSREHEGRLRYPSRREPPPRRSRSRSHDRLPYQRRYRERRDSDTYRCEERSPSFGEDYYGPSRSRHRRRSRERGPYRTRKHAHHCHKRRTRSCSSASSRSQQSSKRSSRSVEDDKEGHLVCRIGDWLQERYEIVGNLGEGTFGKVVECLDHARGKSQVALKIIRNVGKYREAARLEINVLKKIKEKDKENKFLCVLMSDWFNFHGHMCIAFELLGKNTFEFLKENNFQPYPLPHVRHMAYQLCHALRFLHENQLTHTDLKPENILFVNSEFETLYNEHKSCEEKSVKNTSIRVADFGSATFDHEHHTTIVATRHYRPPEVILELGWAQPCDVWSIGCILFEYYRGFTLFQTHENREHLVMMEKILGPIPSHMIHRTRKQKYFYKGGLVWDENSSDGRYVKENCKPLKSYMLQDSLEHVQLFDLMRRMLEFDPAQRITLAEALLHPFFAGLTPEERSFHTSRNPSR
MAP3K8, sequence (P41279 whole entry): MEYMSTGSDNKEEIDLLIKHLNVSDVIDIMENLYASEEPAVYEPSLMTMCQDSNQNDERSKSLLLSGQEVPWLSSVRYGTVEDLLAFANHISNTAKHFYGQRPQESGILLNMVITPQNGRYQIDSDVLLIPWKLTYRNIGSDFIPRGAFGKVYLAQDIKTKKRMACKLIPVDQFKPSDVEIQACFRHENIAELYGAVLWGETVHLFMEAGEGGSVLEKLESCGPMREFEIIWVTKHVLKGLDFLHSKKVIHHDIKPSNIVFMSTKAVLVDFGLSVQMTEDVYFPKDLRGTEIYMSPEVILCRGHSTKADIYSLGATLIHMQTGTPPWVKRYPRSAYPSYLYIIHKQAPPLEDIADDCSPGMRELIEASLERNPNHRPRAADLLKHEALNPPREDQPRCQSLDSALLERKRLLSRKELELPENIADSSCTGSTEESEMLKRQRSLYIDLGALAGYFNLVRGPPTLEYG
IKKB, sequence (O14920 whole entry): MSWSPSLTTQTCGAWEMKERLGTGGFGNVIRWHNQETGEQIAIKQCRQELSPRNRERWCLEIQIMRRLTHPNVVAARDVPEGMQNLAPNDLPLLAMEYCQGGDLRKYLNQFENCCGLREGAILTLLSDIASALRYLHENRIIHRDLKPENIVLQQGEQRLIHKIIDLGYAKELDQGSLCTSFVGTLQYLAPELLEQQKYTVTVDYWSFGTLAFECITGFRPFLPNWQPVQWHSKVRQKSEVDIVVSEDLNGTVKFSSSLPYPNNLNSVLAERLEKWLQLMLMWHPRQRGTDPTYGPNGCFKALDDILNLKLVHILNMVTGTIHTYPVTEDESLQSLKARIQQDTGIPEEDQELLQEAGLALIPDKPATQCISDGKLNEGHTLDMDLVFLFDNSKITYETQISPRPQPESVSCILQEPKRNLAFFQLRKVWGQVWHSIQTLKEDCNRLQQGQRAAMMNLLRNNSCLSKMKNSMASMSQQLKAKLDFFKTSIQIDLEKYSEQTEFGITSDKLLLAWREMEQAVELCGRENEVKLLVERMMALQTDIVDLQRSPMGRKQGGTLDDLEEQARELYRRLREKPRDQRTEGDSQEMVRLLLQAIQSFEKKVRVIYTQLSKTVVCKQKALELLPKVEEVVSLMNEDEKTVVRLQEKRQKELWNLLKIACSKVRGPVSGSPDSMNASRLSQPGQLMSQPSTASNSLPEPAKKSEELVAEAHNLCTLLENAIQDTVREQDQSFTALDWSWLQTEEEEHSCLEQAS
CHEK2, sequence (O96017 whole entry): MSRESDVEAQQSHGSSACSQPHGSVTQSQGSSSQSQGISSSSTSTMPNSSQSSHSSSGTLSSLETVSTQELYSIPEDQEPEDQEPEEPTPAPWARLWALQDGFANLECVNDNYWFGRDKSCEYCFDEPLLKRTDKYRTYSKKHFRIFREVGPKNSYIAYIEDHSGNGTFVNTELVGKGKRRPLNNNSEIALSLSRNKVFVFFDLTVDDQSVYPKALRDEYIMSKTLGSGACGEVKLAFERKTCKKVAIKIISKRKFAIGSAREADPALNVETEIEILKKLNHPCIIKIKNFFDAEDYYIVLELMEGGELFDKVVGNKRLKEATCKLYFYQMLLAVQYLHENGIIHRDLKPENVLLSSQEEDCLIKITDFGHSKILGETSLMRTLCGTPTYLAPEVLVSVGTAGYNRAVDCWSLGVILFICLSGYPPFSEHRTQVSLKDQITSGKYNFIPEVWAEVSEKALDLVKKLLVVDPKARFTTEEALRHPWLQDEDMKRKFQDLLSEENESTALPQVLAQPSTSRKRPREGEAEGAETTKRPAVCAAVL

## C[C@H]1CN(c2c(NC(=O)c3ccc(F)c(-c4c(F)cccc4F)n3)cnc3c2CC[C@H]3O)C[C@@H](N)[C@@H]1O.O=P(O)(O)O [INCB053914, N-((R)-4-((3R,4R,5S)-3-amino-4-hydroxy-5-methylpiperidin-1-yl)-7-hydroxy-6,7-dihydro-5H-cyclopenta[b]pyridin-3-yl)-6-(2,6-difluorophenyl)-5-fluoropicolinamide phosphate]
[1]
  IC50: > 20 µM
[2]
  IC50: > 20 µM
[3]
  pSTAT3(Y705) levels: negligible effects
[4]
  IC50: > 20 µM
[5]
  IC50: > 20 µM
[6]
  IC50: > 20 µM
[7]
  IC50: > 20 µM
[8]
  IC50: > 20 µM
[9]
  IC50: > 20 µM
[10]
  IC50: > 20 µM
[11]
  EC50: 0.116 µM
[12]
  IC50: > 20 µM
[13]
  IC50: > 20 µM
[14]
  IC50: > 20 µM
[15]
  IC50: > 20 µM
[16]
  kinases significantly inhibited in the panel of 192 kinases: no kinase other than Per-Arnt-Sim (PAS) kinase was significantly inhibited
[17]
  IC50: > 20 µM
[18]
  IC50: > 20 µM
[19]
  IC50: > 20 µM
[20]
  IC50: > 20 µM
[21]; MOLM-16 model
  lowest dose at which tumor growth inhibition was apparent: 1 mg/kg
[21]; MOLM-16 tumors, 30 mg/kg twice a day orally
  maximal tumor growth inhibition: 96%
[21]; MOLM-16 tumors, 30 mg/kg twice a day, PR = ≥50% decrease in tumor volume vs treatment start, eight mice/group, 30 mg/kg
  mice with a partial regression (PR): six of eight
[22]
  IC50: > 20 µM
[23]
  IC50: > 20 µM
